{"source": "patent US20040082031A1", "about": "“Inflammatory inhibition factor fwa116” (priority 2001, published 2004)", "test_system": "expression of Fwa116 in human blood vessel endothelia cell", "assay": "Effect of ox-LDL and soybean genistein on expression of Fwa116 (Northern blotting)", "type": "cell-based", "details": "cells treated with ox-LDL (200 μg/mL) and soybean genistein (100 μM) simultaneously, FIG. 3", "procedure": "Low density lipoproteins (LDL) with a density of 1.019 to 1.063 obtained by density gradient centrifugation were oxidized with Cu^2+ for 24 hours, filtrated through a 0.22 μm filter membrane, and stored at 4[…] in a dark place. The value of TBARS was determined and the ox-LDL was separated by electrophoresis on agarose gel. More than 10 nmol/mg of TBARS value and the increase of electrophoretic mobility indicated successful oxidation.\nThe frozen tube containing human blood vessel endothelia cells was taken out from liquid-nitrogen, and put rapidly into a water bath at 37[…]]. After being melted completely, the cell suspension was inoculated to a 25 mL culture bottle containing 5 mL of RPMI or DMEM with 10% FES. Culture was carried out overnight in an incubator at 37[…] and 5% of CO2 concentration. The medium was replaced on the next day.\nWhen Cells were grown to substantial confluency (with a covering percentage of around 80%), the original medium was discarded. After Cells were rinsed twice with 1× PBS (pH7.4), 0.125% trypsin was added, and the cells were digested for 5-10 minutes at 37 °C. […] The number of cells was counted, and the cell suspension was inoculated to a culture bottle containing 5 mL of RPMI or DMEM with 10% FES to a concentration of 100,000 cells/mL. […]", "data": [{"smiles": "O=c1c(-c2ccc(O)cc2)coc2cc(O)cc(O)c12", "note": "[soybean genistein, genistein]", "values": [{"measurement": "increase of expression of Fwa116", "result": "more than 10 fold"}]}]}
